From patent US7087623B2, “Thiazole and other heterocyclic ligands for mammalian dopamine, muscarinic and serotonin receptors and transporters, and methods of use thereof” (Sepracor Inc., priority 2001, dated 2006)
Read-outs that look alike come from different tables or passages of the source.

How the values were obtained:
[1] = biological target: T1, human muscarinic M4 receptor (Homo sapiens, UniProt P08173); experiment: Binding to human muscarinic M4 receptors ([3H]N-methylscopolamine)
T1 construct: expressed in transfected cells; host or cells: BSR-M4H
T1 sequence (P08173 1-479): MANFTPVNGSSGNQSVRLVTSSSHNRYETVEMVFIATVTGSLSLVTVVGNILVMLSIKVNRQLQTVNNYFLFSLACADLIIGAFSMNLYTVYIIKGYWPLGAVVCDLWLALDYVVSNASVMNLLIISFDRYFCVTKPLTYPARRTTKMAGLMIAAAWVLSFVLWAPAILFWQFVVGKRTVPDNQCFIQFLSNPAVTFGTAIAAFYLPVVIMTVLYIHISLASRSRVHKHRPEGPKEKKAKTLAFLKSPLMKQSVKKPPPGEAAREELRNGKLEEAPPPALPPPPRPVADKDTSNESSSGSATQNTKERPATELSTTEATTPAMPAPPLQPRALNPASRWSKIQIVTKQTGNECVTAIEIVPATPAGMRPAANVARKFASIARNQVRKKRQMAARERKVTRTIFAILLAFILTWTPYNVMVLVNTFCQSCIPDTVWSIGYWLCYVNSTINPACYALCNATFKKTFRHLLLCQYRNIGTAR
Method: This assay measures binding of [^3H]N-methylscopolamine to human muscarinic M4 receptors. BSR-M4H cells transfected with a plasmid encoding the human muscarinic M4 receptor were used to prepare membranes in modified Tris-HCl pH 7.4 buffer using standard techniques. A 5 μg aliquot of membrane was incubated with 0.29 nM [^3H]N-methylscopolamine for 60 minutes at 25° C. Non-specific binding was estimated in the presence of 1 μM atropine. Membranes were filtered and washed 3 times and the filters are counted to determine [^3H]N-methylscopolamine specifically bound. See Buckley, N. J., Bonner, T. I., Buckley, C. M. and Brann, M. R. Antagonist binding properties of five cloned muscarinic receptors expressed in CHO-K1 cells. Mol. Pharmacol. 35: 469–476, 1989.
The human 5-HT2a and 5-HT2b screens were conducted according to Bonhaus, D. W. et al. Br. J. Pharmacol. 1995, 115, 622. The human […], W. A. et al. J. Neurochem. 1997, 69, 1449. The human 5-HT6 screen was conducted according to Monsama, F. J. et al. Mol. Pharmacol. 1993, 43, 320. The assay to human D3 receptors was conducted according to Sokoloff, P. et al. Nature 1990, 347;146. The human dopamine transporter assay was conducted according to Gu, H. et. al. J. Biol. Chem. 1994, 269 (10);7124; and Giros, B. et al. Trends. Pharmacol. Sci. 1993, 14: 43. The human muscarinic M1–M4 screens were conducted according to Buckley N. J. et al. Mol. Pharmacol. 1989, 35:469.
The human dopamine transporter assay was conducted according to Gu, H. et. al. J. Biol. Chem. 1994, 269 (10);7124 and Giros, B. et al. Trends. Pharmacol. Sci. 1993, 14: 43. The human muscarinic M1–M4 screens were conducted according to Buckley N. J. et al. Mol. Pharmacol. 199, 35:469

[2] = biological target: T2, human dopamine D3 receptor (Homo sapiens, UniProt P35462); experiment: Radioligand binding assay, human dopamine D3 receptors ([3H]Spiperone)
T2 construct: expressed in transfected cells; host or cells: CHO

[3] = biological target: T3, human dopamine transporter (Homo sapiens, UniProt Q01959); experiment: Binding to human dopamine transporter ([125I]RTI-55)
T3 construct: expressed in transfected cells; host or cells: CHO-K1
Method: CHO-K1 cell membranes stably transfected with a plasmid encoding the human dopamine transporter were prepared in modified Tris-HCl pH 7.4 buffer using standard techniques. […] Non-specific binding was estimated in the presence of 10 μM nomifensine. […] Trends. […]

[4] = biological target: T4, human serotonin 5-HT2C receptor (Homo sapiens, UniProt P28335); experiment: Radioligand binding assay, human 5-HT2C receptors ([3H]Mesulergine)
T4 construct: expressed in transfected cells; host or cells: CHO-K1
T4 sequence (P28335 33-458): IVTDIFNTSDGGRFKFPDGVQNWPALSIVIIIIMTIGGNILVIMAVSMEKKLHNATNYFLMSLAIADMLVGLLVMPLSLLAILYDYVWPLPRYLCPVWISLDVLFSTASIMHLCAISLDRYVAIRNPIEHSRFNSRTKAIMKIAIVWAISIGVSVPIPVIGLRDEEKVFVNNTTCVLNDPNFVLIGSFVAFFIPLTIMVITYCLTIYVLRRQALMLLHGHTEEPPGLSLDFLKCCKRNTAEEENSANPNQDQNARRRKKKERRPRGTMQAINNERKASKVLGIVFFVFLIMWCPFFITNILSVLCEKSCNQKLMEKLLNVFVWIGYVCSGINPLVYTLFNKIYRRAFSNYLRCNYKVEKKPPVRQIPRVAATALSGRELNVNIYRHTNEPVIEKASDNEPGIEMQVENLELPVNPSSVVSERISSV
Method in brief: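 Membranes from CHO-K1 cells stably expressing human 5-HT2C receptor were prepared in modified Tris-HCl pH 7.7 buffer. Non-specific binding was defined with 1 μM mianserin.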

[5] = human, Example 100 table, read-out: IC50 (nM) M4
[6] = human, Example 100 table, read-out: IC50 (nM) D3
[7] = human, Example 100 table, read-out: IC50 (nM) DAT
[8] = human, Example 100 table, read-out: IC50 (nM) 5-HT2C
[9] = human, Example 101 table, read-out: IC50 (nM) M4
[10] = Example 20 table, read-out: IC50 (nM) Against Human D3 Receptors
[11] = human, Example 101 table, read-out: IC50 (nM) DAT
[12] = human 5-HT2c, Example 16 table, read-out: IC50 (nM) 5-HT2c

T3 sequence (Q01959 whole entry): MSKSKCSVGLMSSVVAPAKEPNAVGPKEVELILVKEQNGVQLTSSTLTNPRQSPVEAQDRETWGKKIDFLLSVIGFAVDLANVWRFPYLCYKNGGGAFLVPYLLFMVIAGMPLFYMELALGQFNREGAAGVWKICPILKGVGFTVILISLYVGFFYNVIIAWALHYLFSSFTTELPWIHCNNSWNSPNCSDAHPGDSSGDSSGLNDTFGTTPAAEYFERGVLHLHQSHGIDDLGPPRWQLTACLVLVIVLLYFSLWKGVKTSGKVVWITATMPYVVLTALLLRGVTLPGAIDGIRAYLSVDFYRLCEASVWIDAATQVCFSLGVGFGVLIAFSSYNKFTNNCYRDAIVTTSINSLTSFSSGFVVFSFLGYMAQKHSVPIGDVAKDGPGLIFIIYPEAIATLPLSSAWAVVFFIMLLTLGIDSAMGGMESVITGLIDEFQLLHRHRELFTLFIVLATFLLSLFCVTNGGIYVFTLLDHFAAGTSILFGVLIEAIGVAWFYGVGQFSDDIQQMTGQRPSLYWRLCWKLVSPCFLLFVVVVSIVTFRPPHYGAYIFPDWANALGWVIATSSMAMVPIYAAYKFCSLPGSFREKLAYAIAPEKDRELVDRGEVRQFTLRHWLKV
T2 sequence (P35462 whole entry): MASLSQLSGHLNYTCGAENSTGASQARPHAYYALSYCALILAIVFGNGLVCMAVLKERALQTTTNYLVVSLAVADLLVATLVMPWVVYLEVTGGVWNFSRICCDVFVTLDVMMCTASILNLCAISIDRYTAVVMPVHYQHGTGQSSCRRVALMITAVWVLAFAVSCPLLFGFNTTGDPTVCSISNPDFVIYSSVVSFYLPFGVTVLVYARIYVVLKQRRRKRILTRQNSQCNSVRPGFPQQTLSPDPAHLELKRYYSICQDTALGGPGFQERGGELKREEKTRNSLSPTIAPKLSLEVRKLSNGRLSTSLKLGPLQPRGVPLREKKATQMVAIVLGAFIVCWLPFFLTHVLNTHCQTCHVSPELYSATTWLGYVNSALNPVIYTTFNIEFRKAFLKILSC

Row | IC50 [1, 5] [nM] | IC50 [2, 6] [nM] | IC50 [3, 7] [nM] | SMILES | IC50 [1, 9] [nM] | IC50 [2, 10] [nM] | IC50 [3, 11] [nM] | IC50 [4, 12] [nM] | also measured
1 | < 1000 | < 100 | > 1000 | CN1CCCC1CCNc1nc(C2(c3ccccc3F)CCCCC2)cs1 (racemic) [Compound 128, {4-[1-(2-fluorophenyl)-cyclohexyl]-thiazol-2-yl}-[2-(1-methyl-pyrrolidin-2-yl)-ethyl]-amine] |  |  |  |  | IC50 [4, 8]: < 10 nM
2 | > 1000 | < 100 | > 1000 | CN1CCCC1CCNc1nc(C2(c3ccccc3F)CCCCC2)cs1 (single isomer, unassigned) [Compound 130, {4-[1-(2-fluorophenyl)-cyclohexyl]-thiazol-2-yl}-[2-(1-methyl-pyrrolidin-2-yl)-ethyl]-amine] |  |  |  |  | IC50 [4, 8]: < 10 nM
3 |  |  |  | CN1CCN(c2nc(C3(c4csc5ccc(Cl)cc45)CCOCC3)cs2)CC1 [Compound 36] | > 1000 | < 1000 | > 1000 | < 1000 | 
4 |  |  |  | Clc1ccc(C2(c3csc(N4CCNCC4)n3)CCOCC2)cc1 [Compound 37] | < 1000 | < 1000 | > 1000 | < 1000 | 
5 |  |  |  | CN1CCN(c2nc(C3(c4ccccc4)CCOCC3)cs2)CC1 [Compound 59] |  |  |  |  | IC50 [1]: > 1000 nM; IC50 ([2]; IC50 (nM) Against Human D3 Receptors, Example 20 table): > 1000 nM; IC50 [3]: > 1000 nM; IC50 ([4]; IC50 (nM) 5-HT2c, human 5-HT2c, Example 16 table): > 1000 nM
6 |  |  |  | CN1CCN(c2nc(C3(c4cccc(Cl)c4)CCOCC3)cs2)CC1 [Compound 63] | > 1000 | < 1000 | > 1000 | < 1000 | 
7 |  |  |  | CN1CCN(c2nc(C3(c4ccccc4F)CCCCC3)cs2)CC1 [Compound 83] | < 1000 | < 100 | > 1000 | < 100 | 
8 |  |  |  | CN1CCN(c2nc(C3(c4ccccc4F)CCCC3)cs2)CC1 [Compound 93] | < 500 | < 1000 | > 1000 | < 100 | 

Row | SMILES | IC50 [1, 5] [nM] | IC50 [2, 6] [nM] | IC50 [3, 7] [nM] | IC50 [1, 9] [nM] | IC50 [2, 10] [nM] | IC50 [3, 11] [nM] | IC50 [4, 12] [nM] | also measured
9 | CN1CCN(c2nc(C3(c4ccccc4F)CCOCC3)cs2)CC1 [Compound 112] | > 1000 | < 1000 | > 1000 |  |  |  |  | 
